Values after ≈ are worked out from the molar mass of the structure shown. Where a SMILES comes first, the peptide text is derived from it. [ ]: non-standard residue; d: D form. Sar = CNCC(=O)O
Columns and labels:
E. coli K12 [1] = assay type: cell-based, Escherichia coli; details: E. coli K12, Mueller-Hinton broth, 50,000 CFU/well, up to 64 μM peptide, 37 °C, 20 h, OD 600 nm; concentration giving >99% reduction in growth; mean and standard deviation of the mean
Protocol: Overnight cultures of E. coli K-12 grown in Mueller-Hinton broth were incubated at 50,000 CFU/well with up to 64 μM of peptide in 96-well plates (Corning, Ref 3598). Plates were then incubated at 37 °C for 20 h, after which the optical density (OD) was measured at 600 nm. Minimum inhibitory concentration (MIC) was determined as the peptide concentration resulting in >99% reduction in growth.

E. coli K12 [2] = assay type: cell-based, Escherichia coli; details: E. coli K12 in M9 minimal media, 30 μM DiOC2(3) 5 min, 20 μM CCCP or 8 μM peptide, 37 °C, up to 180 min, ex 450/em 510 nm; duplicate, three independent days
Protocol: Overnight cultures of E. coli K12 grown in Luria-Bertani (LB) broth were pelleted and resuspended to an OD600 of 0.4 in M9 minimal media. Cultures were grown at 37 °C for 30 min prior to being incubated with 10 mM EDTA for 5 min. Cultures were pelleted again and resuspended in fresh M9 minimal media to remove EDTA before the addition of 30 μM 3,3′-diethyloxacarbocynanine iodide (DiOC2 ([3]); Invitrogen). […] Fluorescence was measured immediately at 37 °C every 3 min for up to 3 h using a SpectraMax Gemini EM microplate reader set to 450 nm excitation and 510 nm emission wavelengths. Fluorescence curves were normalized to wells containing only dye and then plotted and analyzed using GraphPad Prism 9. Data at 15-min intervals are presented as mean and standard deviation of the mean for ease of visualization. Experiments were performed in duplicate and repeated on three independent days.

[3] = Tryptophan quenching assay with dibrominated lipid LUVs; assay type: physicochemical; details: 5 μM peptide or BSA, peptide-to-lipid ratio of 62.5, 0-30% brominated lipid, Stern-Volmer plot; mean of three independent analyses
Protocol: Large unilamellar vesicles (LUVs) were prepared using methods previously described ([14]). Briefly, 1-palmitoyl-2-oleoyl-sn-glycero-3-phosphoethanolamine (POPE) and 1-palmitoyl-2-oleoyl-sn-glycero-3-phospho-(1′-rac-glycerol) (POPG) (Avanti Polar Lipids) were combined in a 3:1 ratio, respectively, in chloroform and dried to a film before water washing and lyophilizing into a powder. This powder was resuspended in Tris-Cl buffer (10 mM Tris, 10 mM NaCl, pH 7), freeze-thawed 5× (dry ice – 50 °C water bath) and extruded through a mini-extruder fitted with a 0.2 μm Whatman Nuclepore polycarbonate membrane filter (Cytiva) at least 15× to form LUVs. Where applicable, 1-palmitoyl-2-(6,7-dibromo)stearoyl-sn-glycero-3-phosphocholine (PC-Br ([6], [7])) or 1-palmitoyl-2-(11,12-dibromo)stearoyl-sn-glycero-3-phosphocholine (PC-Br ([11], [12])) (Avanti Polar Lipids) were substituted for POPE at the given percentages and incorporated into LUVs as described.
Brominated lipid-containing LUVs (0%, 10%, 20%, and 30%) were combined with 5 μM peptide and tryptophan emission fluorescence was recorded from 300 to 400 nm using a 280 nm excitation wavelength. Fluorescence spectra were plotted and the area under the curve was used to generate a Stern-Volmer plot of initial fluorescence/quenched fluorescence (Fo/F) against percentage brominated lipid. […]

[4] = Circular dichroism, peptide secondary structure; assay type: physicochemical; details: 20 μM peptide, 10 mM Tris-Cl, 10 mM NaCl, pH 7, minima at 208 and 222 nm, average of three independent analyses
Protocol: Circular dichroism (CD) spectra of peptides were recorded between 190 and 250 nm on a Jasco J-1500 CD spectropolarimeter using a 0.1 cm pathlength quartz cuvette, scanning at […] with three accumulations. Peptide spectra were acquired in either water, 20% acetonitrile, 140 mM sodium dodecyl sulfate (SDS), or 3:1 POPE:POPG, in buffer (10 mM Tris-Cl, 10 mM NaCl, pH 7), at a constant peptide concentration of 20 μM and then plotted using GraphPad Prism 9. Data are presented from 200 to 250 nm for ease of visualization. Raw millidegree (mdeg) spectra were background subtracted and converted to mean residue ellipticity (MRE) using Equation 1 below, where c is the concentration in μM, l is the pathlength in cm, and n is the number of residues.(1) MRE=100(mdeg)/cln
Using the MRE value at 222 nm, the peptide helical percentage was estimated using Equation 2 below ([45], [46]), where MRE222 is the MRE value at 222 nm and n is the number of peptide bonds.(2) %Helix=100(MRE222/(−39,500(1−2.57/n)))

Row | Molecule | MIC (E. coli K12 [1]) | Dissipation of the proton motive force (DiOC2(3) RFU) (E. coli K12 [2]) | Tryptophan fluorescence quenching by PC-Br(11,12)-containing LUVs (depth of insertion) [3] | Peptide secondary structure in the aqueous phase (CD) [4]
1 | CC[C@H](C)[C@H](NC(=O)CN)C(=O)NCC(=O)N[C@@H](C)C(=O)N[C@H](C(=O)N[C@@H](CC(C)C)C(=O)N[C@@H](CCCCN)C(=O)N[C@H](C(=O)N[C@@H](CC(C)C)C(=O)N[C@H](C(=O)N[C@H](C(=O)NCC(=O)N[C@@H](CC(C)C)C(=O)N1CCC[C@H]1C(=O)N[C@@H](C)C(=O)N[C@@H](CC(C)C)C(=O)N[C@H](C(=O)N[C@@H](CO)C(=O)N[C@@H](Cc1c[nH]c2ccccc12)C(=O)N[C@H](C(=O)N[C@@H](CCCCN)C(=O)N[C@@H](CCCNC(=N)N)C(=O)N[C@@H](CCCCN)C(=O)N[C@@H](CCCNC(=N)N)C(=O)N[C@@H](CCC(N)=O)C(=O)N[C@@H](CCC(N)=O)C(N)=O)[C@@H](C)CC)[C@@H](C)CC)[C@@H](C)O)[C@@H](C)O)C(C)C)C(C)C [Melittin, reference compound] | 5 ± 2 µM (≈ 14.2 µg/mL) | – | – | –
2 | CC[C@H](C)[C@H](NC(=O)[C@H](C)NC(=O)[C@@H](NC(=O)[C@H](CC(C)C)NC(=O)[C@@H](NC(=O)[C@H](Cc1c[nH]c2ccccc12)NC(=O)CNC(=O)[C@H](C)NC(=O)[C@H](CCSC)NC(=O)[C@H](C)NC(=O)CNC(=O)[C@H](Cc1ccccc1)NC(=O)[C@@H](NC(=O)[C@H](CC(C)C)NC(=O)[C@H](CC(C)C)NC(=O)[C@@H](NC(=O)[C@@H]1CCCN1C(=O)[C@@H](NC(=O)CN(C)C(=O)CN(C)C(=O)CN(C)C(=O)[C@H](C)NC(C)=O)C(C)C)[C@@H](C)CC)[C@@H](C)CC)[C@@H](C)CC)[C@@H](C)CC)C(=O)N[C@H](C(=O)N[C@@H](C)C(=O)N[C@@H](CCCCN)C(=O)N[C@@H](CC(C)C)C(=O)N[C@@H](CCCCN)C(=O)N[C@@H](CCCCN)C(=O)N[C@@H](CCCCN)C(=O)N[C@@H](CCCCN)C(N)=O)[C@@H](C)CC [TM1-2] (Ac-A[Sar][Sar][Sar]VPILLIFGAMAGWILIAIIAKLKKKK-NH2) | >64 µM | re-establish the PMF back in the range of untreated cultures | – | –
3 | CC[C@H](C)[C@H](NC(=O)[C@H](C)NC(=O)[C@H](CCSC)NC(=O)[C@H](C)NC(=O)[C@@H](NC(=O)[C@H](Cc1ccccc1)NC(=O)CNC(=O)[C@H](CC(C)C)NC(=O)[C@H](CC(C)C)NC(=O)CNC(=O)[C@@H]1CCCN1C(=O)[C@@H](NC(=O)CN(C)C(=O)CN(C)C(=O)CN(C)C(=O)[C@H](C)NC(C)=O)C(C)C)[C@@H](C)CC)C(=O)N[C@@H](Cc1c[nH]c2ccccc12)C(=O)N[C@H](C(=O)N[C@@H](CC(C)C)C(=O)N[C@H](C(=O)N[C@@H](C)C(=O)N[C@H](C(=O)N[C@H](C(=O)N[C@@H](C)C(=O)N[C@@H](CCCCN)C(=O)N[C@@H](CC(C)C)C(=O)N[C@@H](CCCCN)C(=O)N[C@@H](CCCCN)C(=O)N[C@@H](CCCCN)C(=O)N[C@@H](CCCCN)C(N)=O)[C@@H](C)CC)[C@@H](C)CC)[C@@H](C)CC)[C@@H](C)CC [TM1-4] (Ac-A[Sar][Sar][Sar]VPGLLGFIAMAIWILIAIIAKLKKKK-NH2) | >64 µM | – | penetrate deeper into the lipid bilayer | strongest helix
4 | carbonyl cyanide m-chlorophenylhydrazine [CCCP, reference compound] | – | immediate increase in RFU | – | –
5 | CC[C@H](C)[C@H](NC(=O)[C@H](C)NC(=O)[C@H](CC(C)C)NC(=O)CNC(=O)CNC(=O)[C@H](C)NC(=O)[C@H](CC(C)C)NC(=O)[C@H](CCSC)NC(=O)[C@@H](NC(=O)[C@@H](NC(=O)[C@@H](NC(=O)[C@H](C)NC(=O)[C@@H](NC(=O)[C@@H](NC(=O)[C@H](Cc1c[nH]c2ccccc12)NC(=O)[C@H](C)NC(=O)[C@H](Cc1ccccc1)NC(=O)[C@@H](NC(=O)[C@@H]1CCCN1C(=O)CN(C)C(=O)CN(C)C(=O)CN(C)C(=O)[C@H](C)NC(C)=O)[C@@H](C)CC)C(C)C)[C@@H](C)CC)[C@@H](C)CC)[C@@H](C)CC)[C@@H](C)CC)C(=O)N[C@@H](CC(C)C)C(=O)N[C@@H](CCCCN)C(=O)N[C@@H](CC(C)C)C(=O)N[C@@H](CCCCN)C(=O)N[C@@H](CCCCN)C(=O)N[C@@H](CCCCN)C(=O)N[C@@H](CCCCN)C(N)=O [TM1-1] (Ac-A[Sar][Sar][Sar]PIFAWVIAIIIMLAGGLAILKLKKKK-NH2) | >64 µM | re-establish the PMF back in the range of untreated cultures | – | –
6 | CC[C@H](C)[C@H](NC(=O)CNC(=O)[C@H](CC(C)C)NC(=O)[C@H](Cc1c[nH]c2ccccc12)NC(=O)[C@H](C)NC(=O)[C@@H](NC(=O)[C@@H](NC(=O)[C@H](CCSC)NC(=O)[C@@H](NC(=O)[C@H](C)NC(=O)[C@H](Cc1ccccc1)NC(=O)[C@H](C)NC(=O)[C@H](CC(C)C)NC(=O)[C@H](CC(C)C)NC(=O)CNC(=O)[C@@H]1CCCN1C(=O)[C@@H](NC(=O)CN(C)C(=O)CN(C)C(=O)CN(C)C(=O)[C@H](C)NC(C)=O)C(C)C)[C@@H](C)CC)[C@@H](C)CC)[C@@H](C)CC)C(=O)N[C@@H](C)C(=O)N[C@H](C(=O)N[C@H](C(=O)N[C@@H](CCCCN)C(=O)N[C@@H](CC(C)C)C(=O)N[C@@H](CCCCN)C(=O)N[C@@H](CCCCN)C(=O)N[C@@H](CCCCN)C(=O)N[C@@H](CCCCN)C(N)=O)[C@@H](C)CC)[C@@H](C)CC [TM1-3] (Ac-A[Sar][Sar][Sar]VPGLLAFAIMIIAWLGIAIIKLKKKK-NH2) | >64 µM | – | penetrate deeper into the lipid bilayer | –
